This assay has as its target T1, BACE1 enzyme (Homo sapiens, UniProt P56817).
T1 construct: The HEK293-9B.A1 cell line, which overexpresses the BACE1 enzyme, was derived from HEK293 cells; endogenous in cells; washed membrane pellet / cell homogenate
The experiment in a line: Radioligand displacement assay with a radiolabeled BACE inhibitor on HEK293-9B.A1 cell homogenate. It is filed as binding. The conditions noted are these: HEK293-9B.A1 cell homogenate overexpressing BACE1, 1 nM radioligand, pH 5.0, 1.5 hr at 25° C., read-out: Activity Rating (activity based on IC50 values). On the procedure: Radioligand displacement assays with a radiolabeled BACE inhibitor (WO 2004 013098, compound 3, where the methoxy group is substituted for C(^3H)3) were carried out using standard methods (Keen, M. (1999) in Receptor Binding Techniques (Walker, J. M. ed) p. 106 Humana Press, Totowa, N.J.). The HEK293-9B.A1 cell line, which overexpresses the BACE1 enzyme, was derived from HEK293 cells (Simmons, N. L. (1990) A cultured human renal epithelioid cell line responsive to vasoactive intestinal peptide. Exp. Physiol. 75:309-19.) by RAGE™ (Harrington, J. J. et al. (2001) Creation of genome-wide protein expression libraries using random activation of gene expression. Nat. Biotechnol. 19:440-5; U.S. Pat. No. 6,410,266 and 6,361,972). T225 flask cultures of HEK293-9B.A1 were grown to 80% confluency in DMEM supplemented with 2 mM L-glutamine, 10 μg/ml penecillin, 10 μg/ml streptomycin, 3 μg/ml puromycin, 100 nM methotrexate, and 10% fetal bovine serun (Invitrogen, Carlsbad, Calif.), harvested, and resuspended at 2×10^8 cells per 10 ml of lysis buffer consisting of 50 mM HEPES pH 7.0 containing a protease inhibitor cocktail of AEBSF 104 μM, aprotinin 80 nM, leupeptin 2 μM, bestatin 4 μM, pepstatin A 1.5 μM, and E-64 1.4 μM (0.1% of protease inhibitor cocktail P8340, Sigma-Aldrich, St. Louis, Mo.) at 4° C. The resuspended cells were homogenized using a Polytron (Brinkman, Westbury, N.Y.) at setting 6 for 10 sec., then centrifuged at 48,000×g for 10 min. The resulting pellet was washed by repeating the resuspension, homogenization and centrifugation steps. The final pellet was resuspended in buffer at 4° C. to yield a total protein concentration of 5 mg/ml, then aliquots were frozen in liquid nitrogen for further storage at −70° C. Immediately before carrying out a binding assay, an aliquot of cell homogenate was thawed and diluted to a concentration of 100 μg/ml in assay buffer consisting of 50 mM HEPES pH 5.0 and 0.1% CHAPSO. Assays were initiated in polypropylene 96-well plates (Costar, Cambridge, Mass.) by the addition of 200 μl of cell homogenate to 50 μl of assay buffer containing 1 nM radioligand (WO 2004 013098, compound 3, where the methoxy group is substituted for C(^3H)3: 80 Ci/mMol) and various concentrations of unlabelled compounds, and incubated for 1.5 hr. at 25° C. Separation of bound from free radioligand was by filtration on GFF glass fiber filters (Innotech Biosystems International, Lansing, Mich.) using an Innotech cell harvester. Filters were washed three times with 0.3 ml of phosphate buffered saline pH 7.0 at 4° C. and assessed for radioactivity using a Wallac 1450 Microbeta liquid scintillation counter (PerkinElmer, Boston, Mass.). Ki values of competing compounds were derived through Cheng-Prussoff correction of IC50 values calculated using XLfit (IDBS, Guildford, UK).

pIC50: −log10 of the molar value.

As a reminder, the pIC50 is the negative decadic logarithm of the IC50, by convention in mol/L.

T1 sequence (P56817 46-501): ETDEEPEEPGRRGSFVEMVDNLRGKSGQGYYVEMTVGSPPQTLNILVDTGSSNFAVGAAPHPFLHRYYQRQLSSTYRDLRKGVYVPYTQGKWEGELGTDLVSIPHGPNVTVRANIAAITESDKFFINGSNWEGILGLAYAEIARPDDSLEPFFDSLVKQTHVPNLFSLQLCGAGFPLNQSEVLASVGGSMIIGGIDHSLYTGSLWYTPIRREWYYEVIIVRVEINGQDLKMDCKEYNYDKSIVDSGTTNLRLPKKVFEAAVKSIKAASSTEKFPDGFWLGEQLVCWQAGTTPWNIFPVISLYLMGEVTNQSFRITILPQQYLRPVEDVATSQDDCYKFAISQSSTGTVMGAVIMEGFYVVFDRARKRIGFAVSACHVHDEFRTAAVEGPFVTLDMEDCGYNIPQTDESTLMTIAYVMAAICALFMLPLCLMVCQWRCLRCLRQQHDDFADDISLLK

With `CC(=O)Nc1c(Cl)cc(CN/C(N)=N/C(=O)Cc2c(C)[nH]c3ccccc23)cc1Cl` [Example 11, N-(2,6-Dichloro-4-{N′-[2-(2-methyl-1H-indol-3-yl)-acetyl]-guanidinomethyl}-phenyl)-acetamide], the pIC50 is 6.00 to 7.00.

Turning to `COc1ccc2[nH]cc(CC(=O)/N=C(\N)NCc3cc(C)c(NC(C)=O)c(Cl)c3)c2c1` [Example 9, N-(2-Chloro-4-{N′-[2-(5-methoxy-1H-indol-3-yl)-acetyl]-guanidinomethyl}-6-methyl-phenyl)-acetamide], the pIC50 was 6.00 to 7.00.

For `CC(=O)Nc1c(Cl)cc(CN/C(N)=N/C(=O)Cc2c[nH]c3ccc(C#N)cc23)cc1Cl` [Example 23, N-(4-{N′-[2-(5-Cyano-1H-indol-3-yl)-acetyl]-guanidinomethyl}-2,6-dichloro-phenyl)-acetamide], the pIC50 was above 7.00.

As to `CC(=O)Nc1c(Cl)cc(CN/C(N)=N/C(=O)Cc2c(C#N)[nH]c3ccc(Br)cc23)cc1Cl` [Example 25, N-(4-{N′-[2-(5-Bromo-2-cyano-1H-indol-3-yl)-acetyl]-guanidinomethyl}-2,6-dichloro-phenyl)-acetamide], the pIC50 was above 7.00.

Consider `N/C(=N\C(=O)Cc1c[nH]c2ccc(Br)cc12)NCc1cc(Cl)c(N)c(Cl)c1` [Example 17, N-(4-Amino-3,5-dichloro-benzyl)-N′-[2-(5-bromo-1H-indol-3-yl)-acetyl]-guanidine], for which the pIC50 was below 6.00.

In the case of `N/C(=N\C(=O)Cc1cn(Cc2ccc(F)cc2)c2ccccc12)NCc1cc(Cl)c(N)c(Cl)c1` [Example 6, N-((4-amino-3,5-dichlorobenzylamino)(amino)methylene)-2-(1-(4-fluorobenzyl)-1H-indol-3-yl)acetamide], the pIC50 was below 6.00.

As for `CN1CCN(c2ccc(CN/C(N)=N/C(=O)Cc3c[nH]c4ccc(Br)cc34)cc2Cl)CC1` [Example 19, N-[2-(5-Bromo-1H-indol-3-yl)-acetyl]-N′-[3-chloro-4-(4-methyl-piperazin-1-yl)-benzyl]-guanidine], the negative-log IC50 (pIC50) is below 6.00.

As for `N/C(=N\C(=O)Cc1c[nH]c2ccc(F)cc12)NCc1cc(Cl)cc(Cl)c1` [Example 4, N-(3,5-Dichloro-benzyl)-N′-[2-(5-fluoro-1H-indol-3-yl)-acetyl]-guanidine], the pIC50 was below 6.00.

For `CC(=O)Nc1c(Cl)cc(CN/C(N)=N/C(=O)Cc2c[nH]c3ccc(Br)cc23)cc1Cl` [Example 20, N-(4-{N′-[2-(5-Bromo-1H-indol-3-yl)-acetyl]-guanidinomethyl}-2,6-dichloro-phenyl)-acetamide], the pIC50 was above 7.00.

In the case of `Cn1cc(CC(=O)/N=C(\N)NCc2cc(Cl)c(N)c(Cl)c2)c2ccccc21` [Example 5, N-((4-amino-3,5-dichlorobenzylamino)(amino)methylene)-2-(1-methyl-1H-indol-3-yl)acetamide], the pIC50 was below 6.00.

For the compound `CC(=O)Nc1c(Cl)cc(CN/C(N)=N/C(=O)Cc2c(C)[nH]c3ccc(F)cc23)cc1Cl` [Example 21], the pIC50 was 6.00 to 7.00.

Take `CC(=O)Nc1c(Cl)cc(CN/C(N)=N/C(=O)Cc2c[nH]c3ccc(O)cc23)cc1Cl` [Example 14, N-(2,6-Dichloro-4-{N′-[2-(5-hydroxy-1H-indol-3-yl)-acetyl]-guanidinomethyl}-phenyl)-acetamide]: the pIC50 is 6.00 to 7.00.

For `COc1ccc2[nH]cc(CC(=O)/N=C(\N)NCc3cc(Cl)c(NC(C)=O)c(Cl)c3)c2c1` [Example 2, N-(2,6-Dichloro-4-{N′-[2-(5-methoxy-1H-indol-3-yl)-acetyl]-guanidinomethyl}-phenyl)-acetamide], the pIC50 was 6.00 to 7.00.

As for `COc1ccc2[nH]c(C)c(CC(=O)/N=C(\N)NCc3cc(Cl)c(NC(C)=O)c(Cl)c3)c2c1` [Example 10, N-(2,6-Dichloro-4-{N′-[2-(5-methoxy-2-methyl-1H-indol-3-yl)-acetyl]-guanidinomethyl}-phenyl)-acetamide], the pIC50 is 6.00 to 7.00.

Take `CC(=O)Nc1c(Cl)cc(CN/C(N)=N/C(=O)Cc2c[nH]c3ccc(F)cc23)cc1Cl` [Example 12, N-(2,6-Dichloro-4-{N′-[2-(5-fluoro-1H-indol-3-yl)-acetyl]-guanidinomethyl}-phenyl)-acetamide]: the pIC50 was 6.00 to 7.00.

Regarding `COc1ccc2[nH]cc(CC(=O)/N=C(\N)NCc3cc(Cl)c(N)c(Cl)c3)c2c1` [Example 7, N-((4-amino-3,5-dichlorobenzylamino)(amino)methylene)-2-(5-methoxy-1H-indol-3-yl)acetamide], the pIC50 was below 6.00.

Regarding `CC(=O)Nc1c(Cl)cc(CN/C(N)=N/C(=O)Cc2c[nH]c3ccc(OCc4ccccc4)cc23)cc1Cl` [Example 13, N-(4-{N′-[2-(5-Benzyloxy-1H-indol-3-yl)-acetyl]-guanidinomethyl}-2,6-dichloro-phenyl)-acetamide], the pIC50 is below 6.00.

Regarding `CN1CCN(c2ccc(CN/C(N)=N/C(=O)Cc3c[nH]c4ccc(Br)cc34)cc2)CC1` [Example 18, N-[2-(5-Bromo-1H-indol-3-yl)-acetyl]-N′-[4-(4-methyl-piperazin-1-yl)-benzyl]-guanidine], the negative-log IC50 (pIC50) is below 6.00.

In the case of `CC(=O)Nc1c(Cl)cc(CN/C(N)=N/C(=O)Cc2c[nH]c3cc(F)ccc23)cc1Cl` [Example 16, N-(2,6-Dichloro-4-{N′-[2-(6-fluoro-1H-indol-3-yl)-acetyl]-guanidinomethyl}-phenyl)-acetamide], the negative-log IC50 (pIC50) was 6.00 to 7.00.

For the compound `CC(=O)Nc1c(Cl)cc(CN/C(N)=N/C(=O)Cc2c(C)[nH]c3c(F)cccc23)cc1Cl` [Example 22, N-(2,6-Dichloro-4-{N′-[2-(7-fluoro-2-methyl-1H-indol-3-yl)-acetyl]-guanidinomethyl}-phenyl)-acetamide], the pIC50 is 6.00 to 7.00.

On to `CC(=O)Nc1c(Cl)cc(CN/C(N)=N/C(=O)Cc2c[nH]c3cc(OCc4ccccc4)ccc23)cc1Cl` [Example 15, N-(4-{N′-[2-(6-Benzyloxy-1H-indol-3-yl)-acetyl]-guanidinomethyl}-2,6-dichloro-phenyl)-acetamide], for which the pIC50 was 6.00 to 7.00.

As for `COc1ccc2[nH]cc(CC(=O)/N=C(\N)NCc3cc(Cl)cc(Cl)c3)c2c1` [Example 3, N-(3,5-Dichloro-benzyl)-N′-[2-(5-methoxy-1H-indol-3-yl)-acetyl]-guanidine], the pIC50 is below 6.00.

Regarding `CC(=O)Nc1c(Cl)cc(CN/C(N)=N/C(=O)Cc2c(C(=O)NC(C)(C)C)[nH]c3ccc(Br)cc23)cc1Cl` [Example 24, 3-{2-[N′-(4-Acetylamino-3,5-dichloro-benzyl)-guanidino]-2-oxo-ethyl}-5-bromo-1H-indole-2-carboxylic acid tert-butylamide], the pIC50 was above 7.00.

In the case of `CC(C(=O)/N=C(\N)NCc1cc(Cl)c(N)c(Cl)c1)c1c[nH]c2ccccc12` (stereo not shown) [Example 8, N-((4-amino-3,5-dichlorobenzylamino)(amino)methylene)-2-(1H-indol-3-yl)propanamide], the pIC50 is below 6.00.

For `CC(=O)Nc1c(Cl)cc(CN/C(N)=N/C(=O)Cc2c[nH]c3cc(Br)ccc23)cc1Cl` [Example 1, N-(4-{N′-[2-(6-Bromo-1H-indol-3-yl)-acetyl]-guanidinomethyl}-2,6-dichloro-phenyl)-acetamide], the pIC50 is 6.00 to 7.00.

The record behind these values is patent US7601751B2, “Indole acetic acid acyl guanidines as β-secretase inhibitors” (Bristol-Myers Squibb Company, priority 2005, dated 2009).
